Assay results from US8889906B2, “Tetralin and indane derivatives and uses thereof” (Roche Palo Alto LLC, priority 2004, dated 2014).
Counter-ions that a name gives are not always drawn.

Legend:
[1] = molecular target: T1, recombinant human 5-HT2A receptor (Homo sapiens, UniProt P28223); experiment: 5-HT2A radioligand binding ([3H]Ketanserin competition); conditions: [3H]Ketanserin displacement, membranes of CHO-K1 cells expressing recombinant human 5-HT2A receptor, 32° C.; read-out: pKi for 5-HT2A (converted)
T1 construct: expressed in transfected cells
Experimental: (§1) The binding activity of compounds of this invention in vitro was determined as follows. Duplicate determinations of 5-HT6 ligand affinity were made by competing for binding of [^3H]LSD in cell membranes derived from HEK293 cells stably expressing recombinant human 5-HT6 receptor. Duplicate determinations of 5-HT2A ligand affinity were made by competing for binding of [^3H]Ketanserin (3-(2-(4-(4-fluorobenzoyl)piperidinol)ethyl)-2,4(1H,3H)-quinazolinedione) in cell membranes derived from CHO-K1 cells stably expressing recombinant human 5-HT2A receptor. Membranes were prepared from HEK 293 cell lines by the method described by Monsma et al., Molecular Pharmacology, Vol. 43 pp. 320-327 (1993), and from CHO-K1 cell lines as described by Bonhaus et al., Br J Pharmacol. June; 115(4):622-8 (1995).
(§2) For estimation of affinity at the 5-HT6 receptor, all determinations were made in assay buffer containing 50 mM Tris-HCl, 10 mM MgSO4, 0.5 mM EDTA, 1 mM ascorbic acid, pH 7.4 at 37° C., in a 250 microliter reaction volume. […]
(§3) Assay tubes containing [^3H] […] Ketanserin were determined as radioactive counts per minute using Packard TopCount.
(§4) Displacement of [^3H]LSD or [^3H]Ketanserin from the binding sites was quantified by fitting concentration-binding data to a 4-parameter logistic equation: […]

[2] = molecular target: T2, recombinant human 5-HT6 receptor (Homo sapiens, UniProt P50406); experiment: 5-HT6 radioligand binding ([3H]LSD competition); conditions: [3H]LSD displacement, membranes of HEK293 cells expressing recombinant human 5-HT6 receptor, 37° C.; read-out: pKi for 5-HT6 (converted)
T2 construct: expressed in transfected cells
Experimental: as §1, §2, §3, §4

T1 sequence (P28223 whole entry): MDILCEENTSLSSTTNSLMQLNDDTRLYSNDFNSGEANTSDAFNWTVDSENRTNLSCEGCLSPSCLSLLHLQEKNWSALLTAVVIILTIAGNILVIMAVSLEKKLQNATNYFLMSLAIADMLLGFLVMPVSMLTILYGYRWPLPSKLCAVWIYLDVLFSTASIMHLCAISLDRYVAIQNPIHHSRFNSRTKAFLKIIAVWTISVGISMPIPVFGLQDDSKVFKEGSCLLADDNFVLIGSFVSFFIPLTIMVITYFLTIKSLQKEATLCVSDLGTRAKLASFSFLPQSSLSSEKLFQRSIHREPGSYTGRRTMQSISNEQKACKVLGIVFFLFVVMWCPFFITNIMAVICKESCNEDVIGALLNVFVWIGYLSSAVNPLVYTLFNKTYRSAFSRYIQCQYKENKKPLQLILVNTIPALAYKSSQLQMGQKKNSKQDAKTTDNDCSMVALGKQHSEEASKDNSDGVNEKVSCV
T2 sequence (P50406 whole entry): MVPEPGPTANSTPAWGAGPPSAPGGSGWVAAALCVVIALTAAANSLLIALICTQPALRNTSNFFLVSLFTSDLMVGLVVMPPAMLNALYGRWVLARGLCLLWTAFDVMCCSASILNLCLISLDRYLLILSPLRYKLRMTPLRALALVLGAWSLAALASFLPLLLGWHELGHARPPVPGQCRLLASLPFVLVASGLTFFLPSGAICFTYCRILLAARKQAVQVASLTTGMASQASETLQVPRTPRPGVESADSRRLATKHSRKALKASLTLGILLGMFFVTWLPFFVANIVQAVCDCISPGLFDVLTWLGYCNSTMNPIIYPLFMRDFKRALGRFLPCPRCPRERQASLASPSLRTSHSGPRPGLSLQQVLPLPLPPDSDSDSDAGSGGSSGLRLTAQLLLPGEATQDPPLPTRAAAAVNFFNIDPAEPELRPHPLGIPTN

| Compound | melting point [°C] | also measured |
| --- | --- | --- |
| CC(=N)NCC1CCCc2cc(S(=O)(=O)c3ccccc3)ccc21 (stereo not drawn) [N-(6-Benzenesulfonyl-1,2,3,4-tetrahydro-naphthalen-1-ylmethyl)-acetamidine] |  | Ki [1]: ~0.282 nM |
| N=C(N)CCC1CCCc2cc(S(=O)(=O)c3ccccc3)ccc21 (stereo not drawn) [3-(6-Benzenesulfonyl-1,2,3,4-tetrahydro-naphthalen-1-yl)-propionamidine] |  | Ki [2]: ~0.141 nM |
| CNC[C@@H]1CCCc2cc(S(=O)(=O)c3cccc(OC)c3)ccc21 (as salt: HCl) [Compound 50, (R)-[6-(3-Methoxy-benzenesulfonyl)-1,2,3,4-tetrahydro-naphthalen-1-ylmethyl]-methyl-amine] | 265 to 266 |  |

Now from value to molecule, other results behind:

| melting point [°C] | Compound | also measured |
| --- | --- | --- |
| 146 to 147 | CNC[C@H]1CCCc2cc(S(=O)(=O)c3ccccc3)ccc21 (as salt: TFA) [Compound 40, (S)-(6-Benzenesulfonyl-1,2,3,4-tetrahydro-naphthalen-1-ylmethyl)-methyl-amine] |  |
| 140 to 145 | CC1(C)CN=C(NCC2CCCc3ccc(S(=O)(=O)c4ccccc4)cc32)NC1 (stereo not drawn) [Compound 11, (7-Benzenesulfonyl-1,2,3,4-tetrahydro-naphthalen-1-ylmethyl)-(5,5-dimethyl-1,4,5,6-tetrahydro-pyrimidin-2-yl)-amine] |  |
| 212 to 213 | N#Cc1cccc(S(=O)(=O)c2ccc3c(c2)CCC[C@H]3CN)c1 (as salt: oxalate) [Compound 52, (R)-3-(5-Aminomethyl-5,6,7,8-tetrahydro-naphthalene-2-sulfonyl)-benzonitrile] |  |
